{"source": "ChEMBL document CHEMBL6177994", "about": "(J Med Chem, 2025)", "key": {"[1]": {"test_system": "Protein cereblon/GTPase KRas (Homo sapiens), P01116+Q96SW2 [G12D]", "sequence (P01116 whole entry G12D)": "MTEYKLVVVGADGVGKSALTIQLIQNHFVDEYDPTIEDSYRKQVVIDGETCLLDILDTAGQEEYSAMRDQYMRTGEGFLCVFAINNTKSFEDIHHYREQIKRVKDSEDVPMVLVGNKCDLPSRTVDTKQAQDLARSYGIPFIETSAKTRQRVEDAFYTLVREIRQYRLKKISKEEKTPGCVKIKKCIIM", "sequence (Q96SW2 whole entry partner)": "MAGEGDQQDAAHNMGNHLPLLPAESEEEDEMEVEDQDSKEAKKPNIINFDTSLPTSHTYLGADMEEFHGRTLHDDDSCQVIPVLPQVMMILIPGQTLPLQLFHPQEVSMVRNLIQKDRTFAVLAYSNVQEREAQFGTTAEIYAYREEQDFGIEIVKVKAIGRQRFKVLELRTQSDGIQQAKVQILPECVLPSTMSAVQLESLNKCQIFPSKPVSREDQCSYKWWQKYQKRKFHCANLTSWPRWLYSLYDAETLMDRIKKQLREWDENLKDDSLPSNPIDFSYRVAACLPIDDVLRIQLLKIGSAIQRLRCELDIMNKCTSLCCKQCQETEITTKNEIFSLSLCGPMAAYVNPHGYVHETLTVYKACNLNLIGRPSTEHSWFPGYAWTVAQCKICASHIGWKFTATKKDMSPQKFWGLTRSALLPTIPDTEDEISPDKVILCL", "assay": "In vivo PROTAC activity at CRBN/KRAS G12D mutant in male Balb/c nude mouse xenografted with human PK-59 cells assessed as increase in cleaved caspase 7 level at 10 mg/kg, iv measured after 24 hrs relative to control", "assay_type": "functional, organism-based"}, "MKN-1": {"test_system": "MKN-1", "assay": "Antiproliferative activity against human MKN-1 cells harbouring wild type KRAS assessed as inhibition of cell growth measured after 72 hrs by Cell titer glo method", "assay_type": "functional, cell-based"}, "ASPC1": {"test_system": "ASPC1", "assay": "Effect on GSPT1 level in human ASPC1 cells at 10 nM measured after 8 hrs by Western blot analysis", "assay_type": "functional, cell-based"}, "[2]": {"assay": "Antitumor activity against human PK-59 cells xenografted in female Balb/c nude mouse model assessed as tumor growth inhibition at 0.3 mg/kg, iv QW measured after 28 days relative to control", "assay_type": "functional", "conditions": "PK-59, 672 h, time 28 day, read-out: TGI"}, "[3]": {"assay": "Metabolic stability in mouse liver microsomes assessed as half life at 1 uM preincubated for 3 mins with NADPH and measured up to 60 mins by LC-MS/MS analysis", "assay_type": "ADME, Microsome", "conditions": "time < 63 min"}, "Cytochrome P450 2C8": {"target": "Cytochrome P450 2C8 (Homo sapiens, UniProt P10632)", "sequence (P10632 whole entry)": "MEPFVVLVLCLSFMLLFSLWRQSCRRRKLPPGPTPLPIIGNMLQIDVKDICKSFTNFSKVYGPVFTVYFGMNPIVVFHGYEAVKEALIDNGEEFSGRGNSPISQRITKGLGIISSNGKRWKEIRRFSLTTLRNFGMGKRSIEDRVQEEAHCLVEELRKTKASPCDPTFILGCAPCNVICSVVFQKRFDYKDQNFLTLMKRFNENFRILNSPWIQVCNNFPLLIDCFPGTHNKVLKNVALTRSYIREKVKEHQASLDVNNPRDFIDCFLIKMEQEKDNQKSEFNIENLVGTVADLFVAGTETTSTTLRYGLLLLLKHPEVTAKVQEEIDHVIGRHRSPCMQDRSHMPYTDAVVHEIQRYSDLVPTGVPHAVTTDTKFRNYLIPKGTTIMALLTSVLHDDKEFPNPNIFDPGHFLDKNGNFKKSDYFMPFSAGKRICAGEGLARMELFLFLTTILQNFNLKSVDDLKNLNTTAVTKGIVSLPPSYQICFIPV", "assay": "Inhibition of CYP2C8 in human liver microsomes using amodiaquine as substrate at 10 uM incubated for 20 mins in presence of NADPH by LC/MS analysis", "assay_type": "ADME, Microsome"}, "[4]": {"assay": "Inhibition of ERK phosphorylation in human ASPC1 cells harbouring KRAS G12D mutant measured after 24 hrs", "assay_type": "cell-based", "conditions": "ASPC1, 24 h"}, "[5]": {"assay": "Volume of distribution at steady state in male Sprague-Dawley rat at 1 mg/kg, iv measured up to 24 hrs by LC-MS/MS analysis", "assay_type": "ADME, organism-based", "conditions": "in vivo, read-out: Vdss"}, "[6]": {"assay": "AUC (0 to t) in male Beagle dog at 1 mg/kg, iv measured up to 24 hrs by LC-MS/MS analysis", "assay_type": "ADME, organism-based, Canis lupus familiaris", "conditions": "in vivo"}, "[7]": {"test_system": "Protein cereblon/GTPase KRas (Homo sapiens), P01116+Q96SW2 [G12D]", "assay": "In vivo PROTAC activity at CRBN/KRAS G12D mutant in male Balb/c nude mouse xenografted with human PK-59 cells assessed as degradation of KRAS G12D mutant at 10 mg/kg, iv measured up to 168 hrs relative to control", "assay_type": "functional, organism-based"}, "Cytochrome P450 2C19": {"target": "Cytochrome P450 2C19 (Homo sapiens, UniProt P33261)", "sequence (P33261 whole entry)": "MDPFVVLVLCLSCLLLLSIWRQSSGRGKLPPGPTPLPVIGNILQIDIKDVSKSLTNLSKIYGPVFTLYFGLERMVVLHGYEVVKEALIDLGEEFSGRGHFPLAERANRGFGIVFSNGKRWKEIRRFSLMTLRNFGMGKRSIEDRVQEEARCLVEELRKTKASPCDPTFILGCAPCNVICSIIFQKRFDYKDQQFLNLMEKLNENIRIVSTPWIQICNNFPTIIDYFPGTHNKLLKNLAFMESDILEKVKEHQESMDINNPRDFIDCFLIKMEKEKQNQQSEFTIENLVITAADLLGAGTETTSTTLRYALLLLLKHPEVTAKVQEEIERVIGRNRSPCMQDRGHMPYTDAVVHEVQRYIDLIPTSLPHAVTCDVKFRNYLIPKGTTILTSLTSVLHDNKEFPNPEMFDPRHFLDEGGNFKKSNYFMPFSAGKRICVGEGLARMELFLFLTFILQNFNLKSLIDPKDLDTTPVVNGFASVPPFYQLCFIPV", "assay": "Inhibition of CYP2C19 in human liver microsomes using S-mephenytoin as substrate at 10 uM incubated for 15 mins in presence of NADPH by LC/MS analysis", "assay_type": "ADME, Microsome", "conditions": "0.25 h"}, "Panc 04.03": {"test_system": "Panc 04.03", "assay": "Antiproliferative activity against human Panc 04.03 cells harbouring KRAS G12D mutant assessed as inhibition of cell growth measured after 72 hrs by Cell titer glo method", "assay_type": "functional, cell-based"}, "[8]": {"test_system": "Protein cereblon/GTPase KRas (Homo sapiens), P01116+Q96SW2 [G12D]", "assay": "PROTAC activity at CRBN/KRAS G12D mutant in human ASPC1 cells assessed as induction of KRAS G12D mutant degradation at 10 nM measured after 12 hrs by immunoblot analysis relative to control", "assay_type": "cell-based"}, "[9]": {"assay": "AUC (0 to t) in male ICR mouse at 1 mg/kg, iv measured up to 24 hrs by LC-MS/MS analysis", "assay_type": "ADME, organism-based", "conditions": "in vivo"}, "[10]": {"target": "Protein cereblon/GTPase HRas (Homo sapiens) (UniProt P01112+Q96SW2)", "sequence (P01112 whole entry, looked up)": "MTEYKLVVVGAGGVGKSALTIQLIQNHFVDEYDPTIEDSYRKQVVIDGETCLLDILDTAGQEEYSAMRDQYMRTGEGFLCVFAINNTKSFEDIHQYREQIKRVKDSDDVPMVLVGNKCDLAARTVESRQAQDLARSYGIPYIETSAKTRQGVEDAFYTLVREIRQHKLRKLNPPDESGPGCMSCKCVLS", "sequence (Q96SW2 whole entry, looked up)": "as the sequence (Q96SW2 whole entry partner) above", "assay": "PROTAC activity at CRBN/HRAS in human MKN-1 cells assessed as […] degradation 0.061 to 1000 nM measured after 24 hrs by immunoblot analysis", "assay_type": "cell-based", "conditions": "dose 0.061-1000 nM"}, "[11]": {"assay": "Drug concentration in male Balb/c nude mouse tumor xenografted with human GP2d cells at 10 mg/kg, iv administered as single dose measured after 7 days by LC-MS/MS analysis", "assay_type": "ADME, organism-based, Neoplasm", "conditions": "time 7 day, read-out: Ct"}, "A-427": {"test_system": "A-427", "assay": "Antiproliferative activity against human A-427 cells harbouring KRAS G12D mutant assessed as inhibition of cell growth measured after 72 hrs by Cell titer glo method", "assay_type": "functional, cell-based"}, "[12]": {"assay": "Metabolic stability in rat liver microsomes assessed as half life at 1 uM preincubated for 3 mins with NADPH and measured up to 60 mins by LC-MS/MS analysis", "assay_type": "ADME, Microsome", "conditions": "time < 63 min"}, "[13]": {"assay": "Toxicity in female Balb/c nude mouse xenografted with human PK-59 cells assessed as change in body weight at 0.1 to 3 mg/kg, iv QW measured after 28 days", "assay_type": "organism-based", "conditions": "in vivo, 672 h, dose 0.1-3 mg/kg, time 28 day"}, "[14]": {"assay": "Antitumor activity against human GP2d cells xenografted in female Balb/c nude mouse model assessed as tumor growth inhibition at 10 mg/kg, iv QW administered […] and measured after 28 days relative to control", "assay_type": "functional", "conditions": "672 h, time 28 day, read-out: TGI"}, "[15]": {"assay": "Inhibition of ERK phosphorylation in human GP2d cells harbouring KRAS G12D mutant measured after 24 hrs", "assay_type": "cell-based"}, "[16]": {"assay": "Elimination half life in male ICR mouse pancreas at 10 mg/kg, iv measured up to 336 hrs by LC-MS/MS analysis", "assay_type": "ADME, organism-based", "conditions": "read-out: beta t1/2 (converted)"}, "Cytochrome P450 3A4": {"target": "Cytochrome P450 3A4 (Homo sapiens, UniProt P08684)", "sequence (P08684 whole entry)": "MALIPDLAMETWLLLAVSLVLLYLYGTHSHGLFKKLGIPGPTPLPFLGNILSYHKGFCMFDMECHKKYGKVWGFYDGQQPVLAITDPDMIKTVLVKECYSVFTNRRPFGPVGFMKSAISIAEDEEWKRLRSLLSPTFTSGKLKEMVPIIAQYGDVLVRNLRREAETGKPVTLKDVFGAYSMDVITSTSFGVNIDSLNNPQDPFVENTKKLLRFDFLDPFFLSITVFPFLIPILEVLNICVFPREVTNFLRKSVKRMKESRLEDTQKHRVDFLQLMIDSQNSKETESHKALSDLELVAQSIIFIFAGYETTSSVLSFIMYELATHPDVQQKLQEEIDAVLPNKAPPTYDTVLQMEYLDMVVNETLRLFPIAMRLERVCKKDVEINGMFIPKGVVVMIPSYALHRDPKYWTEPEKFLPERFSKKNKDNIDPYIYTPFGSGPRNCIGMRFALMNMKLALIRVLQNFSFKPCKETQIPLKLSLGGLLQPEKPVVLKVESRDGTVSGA", "assay": "Inhibition of CYP3A4 in human liver microsomes using midazolam as substrate at 10 uM incubated for 15 mins in presence of NADPH by LC/MS analysis", "assay_type": "ADME, Microsome", "conditions": "0.25 h"}, "[17]": {"assay": "Clearance in male Sprague-Dawley rat at 1 mg/kg, iv measured up to 24 hrs by LC-MS/MS analysis", "assay_type": "ADME, organism-based", "conditions": "in vivo"}, "[18]": {"assay": "Metabolic stability in rat liver microsomes assessed as intrinsic clearance at 1 uM preincubated for 3 mins with NADPH and measured up to 60 mins by LC-MS/MS analysis", "assay_type": "ADME, Microsome", "conditions": "time < 63 min, read-out: CLH"}, "[19]": {"assay": "Metabolic stability in mouse liver microsomes assessed as intrinsic clearance at 1 uM preincubated for 3 mins with NADPH and measured up to 60 mins by LC-MS/MS analysis", "assay_type": "ADME, Microsome", "conditions": "time < 63 min, read-out: CLH"}, "[20]": {"assay": "Clearance in male cynomolgus monkey at 1 mg/kg, iv measured up to 24 hrs by LC-MS/MS analysis", "assay_type": "ADME, organism-based, Macaca fascicularis", "conditions": "in vivo"}, "[21]": {"assay": "Antitumor activity against human GP2d cells xenografted in female Balb/c nude mouse model assessed as tumor growth inhibition at 3 mg/kg, iv QW measured after 28 days relative to control", "assay_type": "functional", "conditions": "672 h, time 28 day, read-out: TGI"}, "[22]": {"assay": "Drug concentration in male Balb/c nude mouse plasma xenografted with human PK-59 cells at 10 mg/kg, iv administered as single dose measured after 6 hrs by LC-MS/MS analysis", "assay_type": "ADME, organism-based"}, "[23]": {"assay": "Drug concentration in male ICR mouse plasma at 10 mg/kg, iv measured after 0.25 hrs by LC-MS/MS analysis", "assay_type": "ADME, organism-based"}, "SNU-407": {"test_system": "SNU-407", "assay": "Antiproliferative activity against human SNU-407 cells harbouring KRAS G12D mutant assessed as inhibition of cell growth measured after 72 hrs by Cell titer glo method", "assay_type": "functional, cell-based"}, "SK-LU-1": {"test_system": "SK-LU-1", "assay": "Antiproliferative activity against human SK-LU-1 cells harbouring KRAS G12D mutant assessed as inhibition of cell growth measured after 72 hrs by Cell titer glo method", "assay_type": "functional, cell-based"}, "AGS": {"test_system": "AGS", "assay": "Antiproliferative activity against human AGS cells harbouring KRAS G12D mutant assessed as inhibition of cell growth measured after 72 hrs by Cell titer glo method", "assay_type": "functional, cell-based"}, "[24]": {"assay": "Plasma protein binding in rat at 2 uM by LC-MS/MS analysis", "assay_type": "ADME, cell-free", "conditions": "read-out: PPB"}}, "note": "Calls of active or inactive are those of the source. The rule behind the calls is not given here."}
{"molecule": "C#Cc1c(F)ccc2cc(O)cc(-c3ncc4c(N5CC6CCC(C5)N6)nc(OCC5(CN6CCC7(CC6)CC(N6CCC(c8cc9c(cc8F)c(N8CCC(=O)NC8=O)nn9C)CC6)C7)CC5)nc4c3F)c12", "values": [{"measurement": "Activity", "setting": "[1]", "value": "> 100", "unit": "%"}, {"measurement": "Activity", "setting": "MKN-1", "value": "Weak_effect; Compound Showed Weaker Potency In Antiproliferative Activity Compared To Mrtx1133"}, {"measurement": "Activity", "setting": "ASPC1", "value": "inactive"}, {"measurement": "inhibition in vivo at 0.3 mg/kg", "setting": "[2]", "value": 93, "unit": "%"}, {"measurement": "half-life at 1 µM", "setting": "[3]", "value": 7.22, "unit": "h"}, {"measurement": "inhibition (INH)", "setting": "Cytochrome P450 2C8", "value": "Not_active"}, {"measurement": "IC50", "setting": "[4]", "value": 2.5, "unit": "nM"}, {"measurement": "Vd", "setting": "[5]", "value": 10.3, "unit": "L/kg"}, {"measurement": "AUC(0-t) at 24 h", "setting": "[6]", "value": 458, "unit": "nM·h"}, {"measurement": "Activity", "setting": "[7]", "value": 87.7, "unit": "%"}, {"measurement": "inhibition (INH)", "setting": "Cytochrome P450 2C19", "value": "Not_active"}, {"measurement": "Activity", "setting": "Panc 04.03", "value": "Active; Compound Showed Stronger Antiproliferative Activity Compared To Mrtx1133"}, {"measurement": "Activity", "setting": "[8]", "value": 90, "unit": "%"}, {"measurement": "AUC(0-t) at 24 h", "setting": "[9]", "value": 397, "unit": "nM·h"}, {"measurement": "Activity", "setting": "[10]", "value": "inactive"}, {"measurement": "concentration at 168 h", "setting": "[11]", "value": 840, "unit": "ng/g"}, {"measurement": "Activity", "setting": "A-427", "value": "Active; Compound Showed Stronger Antiproliferative Activity Compared To Mrtx1133"}, {"measurement": "half-life at 1 µM", "setting": "[12]", "value": 2.52, "unit": "h"}, {"measurement": "Activity", "setting": "[13]", "value": "Non-toxic"}, {"measurement": "inhibition in vivo at 10 mg/kg", "setting": "[14]", "value": 94.7, "unit": "%"}, {"measurement": "IC50", "setting": "[15]", "value": 0.35, "unit": "nM"}, {"measurement": "half-life", "setting": "[16]", "value": 330, "unit": "h"}, {"measurement": "inhibition (INH)", "setting": "Cytochrome P450 3A4", "value": "Not_active"}, {"measurement": "clearance", "setting": "[17]", "value": 1.98, "unit": "L/h/kg"}, {"measurement": "CLint scaled at 1 µM", "setting": "[18]", "value": 0.996, "unit": "L/h/kg"}, {"measurement": "CLint scaled at 1 µM", "setting": "[19]", "value": 0.762, "unit": "L/h/kg"}, {"measurement": "clearance", "setting": "[20]", "value": 1.17, "unit": "L/h/kg"}, {"measurement": "inhibition in vivo at 3 mg/kg", "setting": "[21]", "value": 96.9, "unit": "%"}, {"measurement": "concentration at 6 h", "setting": "[22]", "value": 0.27, "unit": "µg/mL"}, {"measurement": "concentration at 0.25 h", "setting": "[23]", "value": 0.903, "unit": "µg/mL"}, {"measurement": "Activity", "setting": "SNU-407", "value": "Active; Compound Showed Stronger Antiproliferative Activity Compared To Mrtx1133"}, {"measurement": "Activity", "setting": "SK-LU-1", "value": "Active; Compound Showed Stronger Antiproliferative Activity Compared To Mrtx1133"}, {"measurement": "IC50", "setting": "AGS", "value": 1.01, "unit": "nM"}, {"measurement": "fraction unbound at 2 µM", "setting": "[24]", "value": "< 0.05"}]}
